Experimental data as given in publication PMC7922932, “Molecular Dissection of Escherichia coli CpdB: Roles of the N Domain in Catalysis and Phosphate Inhibition, and of the C Domain in Substrate Specificity and Adenosine Inhibition” (International Journal of Molecular Sciences, 2021).
“And” between values parts separate entries of the source, which are not always exact repeats. Identical values can stand only once. Like-named read-outs stand apart in the source and are kept apart here.

Key:
[1] = target: T1, CpdB_Ndom (N-terminal domain of CpdB) (Escherichia coli, UniProt P08331, D305N/I97V/M87I); assay type: biochemical; conditions: for K M / k cat / k cat /K M: CpdB_Ndom, substance is the substrate, mean ± SD of three experiments; for Activity of CpdB_Ndom on substrate (hydrolytic rate): fixed 750 µM substrate concentration
T1 construct: GST (N, cleaved yes); made in house; host or cells: E. coli BL21
T1 sequence (P08331 20-354 M87I/I97V/D305N): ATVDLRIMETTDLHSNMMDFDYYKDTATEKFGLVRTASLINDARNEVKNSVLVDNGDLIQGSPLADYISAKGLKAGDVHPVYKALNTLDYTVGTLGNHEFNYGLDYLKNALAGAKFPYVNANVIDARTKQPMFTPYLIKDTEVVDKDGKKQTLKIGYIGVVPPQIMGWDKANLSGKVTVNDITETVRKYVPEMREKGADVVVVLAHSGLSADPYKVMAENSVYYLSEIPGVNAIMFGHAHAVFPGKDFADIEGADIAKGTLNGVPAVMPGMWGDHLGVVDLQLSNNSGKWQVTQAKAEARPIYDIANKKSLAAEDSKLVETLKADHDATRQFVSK
Protocol: With all the detectably hydrolyzed substrates, saturation kinetics was studied and parameters kcat and KM were determined from Michaelis-Menten plots (Table 1).
The same assay was used with 2′,3′- or 3′,5′-cyclic nucleotides, CDP-choline and bis-4-NPP except that an excess of alkaline phosphatase was included in the reaction mixture as auxiliary enzyme.
Datasets obtained with different substrates in the absence of inhibitors were used to derive kcat and KM values by adjusting the Michaelis-Menten equation to the experimental points by non-linear regression.

Mature CpdB [2] = target: T2, Mature CpdB (Escherichia coli, UniProt P08331); parameters: A structural model of mature CpdB (aa 20–647) was built; GST (N, cleaved yes); made in house; host or cells: E. coli BL21; conditions: substance is the substrate; cited from earlier work
T2 sequence (P08331 20-647): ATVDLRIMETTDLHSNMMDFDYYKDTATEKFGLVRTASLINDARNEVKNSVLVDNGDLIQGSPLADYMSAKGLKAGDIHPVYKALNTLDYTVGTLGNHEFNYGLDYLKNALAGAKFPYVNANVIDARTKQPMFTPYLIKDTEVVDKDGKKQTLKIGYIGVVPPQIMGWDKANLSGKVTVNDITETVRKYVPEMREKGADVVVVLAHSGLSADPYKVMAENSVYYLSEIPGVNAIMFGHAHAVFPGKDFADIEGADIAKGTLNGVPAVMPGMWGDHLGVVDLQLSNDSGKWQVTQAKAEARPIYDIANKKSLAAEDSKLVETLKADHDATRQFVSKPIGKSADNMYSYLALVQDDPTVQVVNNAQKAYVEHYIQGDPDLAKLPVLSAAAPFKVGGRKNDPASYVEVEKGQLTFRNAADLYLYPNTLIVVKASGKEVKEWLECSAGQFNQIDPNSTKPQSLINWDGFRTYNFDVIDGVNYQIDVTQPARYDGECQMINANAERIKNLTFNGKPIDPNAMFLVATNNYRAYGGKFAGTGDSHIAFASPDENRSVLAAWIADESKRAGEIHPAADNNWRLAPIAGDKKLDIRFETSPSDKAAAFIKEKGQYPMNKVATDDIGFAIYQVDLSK

His^117Ala-CpdB = target: T3, His^117Ala-CpdB (Escherichia coli, UniProt P08331, D305N/H117A/I514V/I97V/M87I/N471D/S472N); assay type: biochemical
T3 construct: A structural model of mature CpdB (aa 20–647) was built; GST (N, cleaved yes); made in house; host or cells: E. coli BL21
T3 sequence (P08331 20-647 M87I/I97V/H117A/D305N/N471D/S472N/I514V): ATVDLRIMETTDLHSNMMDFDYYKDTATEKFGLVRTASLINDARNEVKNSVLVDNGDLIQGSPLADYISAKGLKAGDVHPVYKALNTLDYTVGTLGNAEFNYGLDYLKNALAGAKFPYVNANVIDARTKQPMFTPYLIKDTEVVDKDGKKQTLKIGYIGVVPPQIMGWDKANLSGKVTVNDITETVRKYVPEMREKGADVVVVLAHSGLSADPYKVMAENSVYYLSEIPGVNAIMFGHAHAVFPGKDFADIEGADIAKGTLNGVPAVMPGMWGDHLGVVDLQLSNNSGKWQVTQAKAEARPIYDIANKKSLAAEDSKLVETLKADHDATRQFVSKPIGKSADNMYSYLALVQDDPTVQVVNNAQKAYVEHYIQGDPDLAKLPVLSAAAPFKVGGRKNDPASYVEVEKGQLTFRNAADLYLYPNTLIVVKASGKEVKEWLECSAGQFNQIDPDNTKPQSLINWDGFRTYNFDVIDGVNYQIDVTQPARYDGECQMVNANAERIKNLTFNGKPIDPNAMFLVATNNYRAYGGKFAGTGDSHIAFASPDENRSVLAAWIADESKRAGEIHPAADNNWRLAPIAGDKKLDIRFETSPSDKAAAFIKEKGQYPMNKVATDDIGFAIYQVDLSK
Source text: (§1) The role of the possible catalytic and substrate-binding sites was additionally tested by the preparation of two point mutants of the mature CpdB protein. On the one hand, the mutation His^117Ala modified the histidine residue conserved in the N domain (Figure 1b) with respect to UshA, where it has been proposed to be part of the catalytic core structure and to act as a general base that facilitates the nucleophilic attack by deprotonating a water molecule, and to participate in the stabilization of the transition state. […] On the other hand, mutation Tyr^544Ala modified one of the aromatic residues of CpdB which are conserved in the C domain with respect to the UshA phenylalanine residues that form a stacked sandwich with the adenine ring of the substrate.

Tyr^544Ala-CpdB [3] = target: T4, Tyr^544Ala-CpdB (Escherichia coli, UniProt P08331, D305N/I514V/I97V/M87I/N471D/S472N/Y544A); assay type: biochemical; conditions: Tyr^544Ala-CpdB; substance is the substrate
T4 construct: A structural model of mature CpdB (aa 20–647) was built; GST (N, cleaved yes); made in house; host or cells: E. coli BL21
T4 sequence (P08331 20-647 M87I/I97V/D305N/N471D/S472N/I514V/Y544A): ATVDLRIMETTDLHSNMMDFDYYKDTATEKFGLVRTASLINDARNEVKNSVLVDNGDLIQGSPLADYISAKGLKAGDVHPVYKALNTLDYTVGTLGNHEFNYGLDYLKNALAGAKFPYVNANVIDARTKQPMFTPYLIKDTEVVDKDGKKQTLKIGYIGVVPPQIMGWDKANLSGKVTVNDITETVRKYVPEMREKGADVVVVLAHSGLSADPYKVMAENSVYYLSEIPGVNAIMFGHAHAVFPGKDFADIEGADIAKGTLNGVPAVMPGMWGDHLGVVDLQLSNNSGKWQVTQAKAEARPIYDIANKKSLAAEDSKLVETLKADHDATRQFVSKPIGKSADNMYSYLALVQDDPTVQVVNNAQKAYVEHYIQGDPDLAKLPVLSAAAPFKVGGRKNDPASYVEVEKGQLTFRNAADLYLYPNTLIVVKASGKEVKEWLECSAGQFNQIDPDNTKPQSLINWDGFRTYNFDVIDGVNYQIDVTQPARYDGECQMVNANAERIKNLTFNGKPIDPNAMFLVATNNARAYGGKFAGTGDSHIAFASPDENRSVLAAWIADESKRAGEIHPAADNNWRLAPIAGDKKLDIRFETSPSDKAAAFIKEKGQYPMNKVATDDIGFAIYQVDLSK
Source text: as §1

Tyr^544Ala-CpdB [4] = assay type: biochemical, Escherichia coli; conditions: Tyr^544Ala-CpdB versus wild-type mature CpdB
Source text: as §1

CpdB_Ndom [5] = target: T5, CpdB_Ndom (Escherichia coli, UniProt P08331, D305N/I97V/M87I); experiment: biochemical; conditions: CpdB_Ndom; substrate bis-4-NPP; global fit, complete competitive inhibition (Figure 7); read-out: Inhibition constant (Ki)
T5 construct: GST (N, cleaved yes); made in house; host or cells: E. coli BL21
T5 sequence (P08331 20-354 M87I/I97V/D305N): as the sequence (P08331 20-354 M87I/I97V/D305N) above
Protocol: Substrate saturation experiments were run in the absence and the presence of one of these inhibitors at fixed concentrations (Figure 7).
(§2) Reaction mixtures of 100 µL contained, besides the needed amount of enzyme (i.e., 0.02–0.05 µg/mL of mature CpdB, 2 µg/mL of a CpdB point mutant, or 0.2 µg/mL of CpdB_Ndom), 50 mM Tris [Tris(hydroxymethyl)aminomethane]-HCl pH 7.5 (adjusted at 37 °C), 2 mM MnCl2, 0.1 mg/mL bovine serum albumin, and the indicated concentrations of bis-4-NPP and the compound tested as inhibitor. Incubations performed at 37 °C were stopped by addition of 0.5 mL of 200 mM Tris, pH 8.9, 5 mM EDTA (ethylenediaminetetraacetate), immediately followed by A405 measurement (ε = 18.1 mM^−1 cm^−1). This termination procedure was used instead of the addition of a high NaOH concentration, to avoid the known formation of brown precipitates of air-oxidized Mn^2+ hydroxide. On occasions, when a higher sensitivity was needed, reaction mixtures of 500 µL were implemented and termination was performed with 0.1 mL 1M Tris, pH 8.9, 30 mM EDTA.

Mature CpdB [6] = target: T2, Mature CpdB; conditions: for Ki: read-out: Inhibition constant (Ki), mature CpdB, substrate 3′-AMP, global fit, mixed partial inhibition (Figure 5)
Source text: In this approach, inhibitors were used as probes for the relevance of those enzyme sites, irrespective of the physiological character and concentrations of the compounds used.
The procedures and detailed conditions to measure the initial rates of phosphohydrolytic reactions were as earlier described [4]. […] The same assay was used with 2′,3′- or 3′,5′-cyclic nucleotides, CDP-choline and bis-4-NPP except that an excess of alkaline phosphatase was included in the reaction mixture as auxiliary enzyme.
The procedures followed to derive kinetic parameters kcat, KM and Ki from initial rate vs. substrate concentration datasets, either in the presence or the absence of inhibitor, were as described elsewhere [49]. Datasets obtained with different substrates in the absence of inhibitors were used to derive kcat and KM values by adjusting the Michaelis-Menten equation to the experimental points by non-linear regression. […] Each one of these equations was simultaneously adjusted (global fit) by nonlinear regression to the three saturation curves of each inhibition experiment, using the Solver function of Microsoft Excel. During the adjustments, Vmax, KM and Ki were left to fluctuate. […] In each set of experiments, the type of inhibition that gave the best fit was used as the model to estimate Ki values.

CpdB_Ndom [7] = target: T5, CpdB_Ndom; assay type: biochemical; conditions: CpdB_Ndom; for IC50: 750 µM bis-4-NPP as the substrate, single illustrative experiments; for Ki: substrate bis-4-NPP, estimated from inhibitor dose-response curves (Figure 6), read-out: Inhibition constant (Ki)
Mature CpdB [8] = target: T2, Mature CpdB; experiment: biochemical; assay type: biochemical; parameters: A structural model of mature CpdB (aa 20–647) was built; GST (N, cleaved yes); made in house; host or cells: E. coli BL21; conditions: mature CpdB; for IC50: 750 µM bis-4-NPP as the substrate, single illustrative experiments, read-out: IC50; for Ki: substrate bis-4-NPP, global fit, mixed partial inhibition (Figure 5), values without SD are single experiments, read-out: Inhibition constant (Ki)
Protocol: as §2

[9] = His^117Ala-CpdB, substance is the substrate

SMILES	K M [1] [µM]	k cat [1] [s⁻¹]	k cat /K M [1]	K M (Mature CpdB [2]) [µM]	k cat (Mature CpdB [2]) [s⁻¹]	k cat /K M (catalytic efficiency) (Mature CpdB [2])	IC50 (Mature CpdB [8]) [µM]	Ki (Mature CpdB [8]) [µM]	also measured
Nc1nc2c(ncn2[C@@H]2O[C@H](CO)[C@H]3OP(=O)(O)O[C@H]32)c(=O)[nH]1 [2′,3′-cGMP]	570 ± 160	58 ± 16	100,000 ± 13,000 M^−1 s^−1	25	84	3,500,000 M^−1 s^−1	–	–	–
Nc1ncnc2c1ncn2[C@@H]1O[C@@H]2COP(=O)(O)O[C@H]3[C@@H](O)[C@H](n4cnc5c(N)ncnc54)O[C@@H]3COP(=O)(O)O[C@H]2[C@H]1O [c-di-AMP, 3′,5′-cyclic diadenosine monophosphate]	3400 ± 2200	0.012 ± 0.007	3.5 ± 0.1 M⁻¹ s⁻¹	15	0.40	29,000 M^−1 s^−1	–	–	–
O=[N+]([O-])c1ccc(OP(=O)(O)Oc2ccc([N+](=O)[O-])cc2)cc1 [bis-4-NPP, bis-4-nitrophenylphosphate]	1300 ± 80	164 ± 14	130,000 ± 7000 M^−1 s^−1	96	340	3.6 × 10^6 M^−1 s^−1 and 3,600,000 M^−1 s^−1	–	–	Catalytic efficiency (kcat/KM) lower than wild-type mature CpdB (His^117Ala-CpdB; His^117Ala-CpdB versus wild-type mature CpdB, same substrate): 60 fold; K M (His^117Ala-CpdB; [9]): 440 ± 90 µM; k cat (His^117Ala-CpdB; [9]): 26 ± 3 s⁻¹; k cat /K M (His^117Ala-CpdB; [9]): 60,000 ± 7000 M^−1 s^−1; K M (Tyr^544Ala-CpdB [3]): 430 ± 30 µM; k cat (Tyr^544Ala-CpdB [3]): 130 ± 34 s⁻¹; k cat /K M (Tyr^544Ala-CpdB [3]): 300,000 ± 100,000 M^−1 s^−1; KM increase by the Tyr^544Ala mutation (Tyr^544Ala-CpdB [4]): five-fold
O=c1ccn([C@@H]2O[C@H](CO)[C@H]3OP(=O)(O)O[C@H]32)c(=O)[nH]1 [2′,3′-cUMP]	630 ± 170	155 ± 32	250,000 ± 50,000 M^−1 s^−1	62	260	4,200,000 M^−1 s^−1	–	–	–
Nc1ccn([C@@H]2O[C@H](CO)[C@H]3OP(=O)(O)O[C@H]32)c(=O)n1 [2′,3′-cCMP]	180 ± 50	33 ± 5	200,000 ± 80,000 M^−1 s^−1	12	100	8,500,000 M^−1 s^−1	–	–	–
Nc1ncnc2c1ncn2[C@@H]1O[C@H](COP(=O)(O)O)[C@@H](O)[C@H]1O [5′-AMP]	–	–	–	–	–	–	110	14	Activity of CpdB_Ndom on substrate (hydrolytic rate) [1]: absence of detectable activity; Ki (CpdB_Ndom [5]): 0.37 ± 0.05 mM; IC50 (Mature CpdB [6]): 900 µM; Ki (Mature CpdB [6]): 20 ± 8 µM; IC50 (CpdB_Ndom [7]): 0.56 mM
Nc1ncnc2c1ncn2[C@@H]1O[C@H](COP(=O)(O)OP(=O)(O)O)[C@@H](O)[C@H]1O [ADP]	–	–	–	–	–	–	1100	60	–
Nc1ncnc2c1ncn2[C@@H]1O[C@H](CO)[C@@H](OP(=O)(O)O)[C@H]1O [3′-AMP]	880 ± 250	0.004 ± 0.0002	5 M⁻¹ s⁻¹ and 5.2 ± 1.0 M⁻¹ s⁻¹	14	176	–	54	3.6 ± 0.2	Stronger loss of catalytic efficiency than on 2′,3′-cAMP caused by the deletion of the C domain ([1]; CpdB_Ndom versus mature CpdB): 10^5 fold; Activity of CpdB_Ndom on substrate (hydrolytic rate) [1]: almost complete loss of activities; Activity of His^117Ala-CpdB on substrate (His^117Ala-CpdB): essentially inactive; K M (Tyr^544Ala-CpdB [3]): 850 ± 110 µM; k cat (Tyr^544Ala-CpdB [3]): 160 ± 37 s⁻¹; KM increase by the Tyr^544Ala mutation (Tyr^544Ala-CpdB [4]): 60 fold; Ki (CpdB_Ndom [5]): 3.3 ± 0.55 mM; IC50 (CpdB_Ndom [7]): 4.1 mM
C[N+](C)(C)CCOP(=O)(O)OP(=O)([O-])OC[C@H]1O[C@@H](n2ccc(N)nc2=O)[C@H](O)[C@@H]1O [CDP-choline]	2900 ± 1700	5.7 ± 3.5	1950 ± 130 M⁻¹ s⁻¹	219	0.51	2300 M⁻¹ s⁻¹	–	–	–
Nc1ncnc2c1ncn2[C@@H]1O[C@H](CO)[C@@H](O)[C@H]1OP(=O)(O)O [2′-AMP]	–	–	–	–	–	–	100	8.8 ± 2	Activity of CpdB_Ndom on substrate (hydrolytic rate) [1]: absence of detectable activity; IC50 (Mature CpdB [6]): 320 µM; Ki (Mature CpdB [6]): 7.1 ± 3.2 µM; IC50 (CpdB_Ndom [7]): 0.92 mM; Ki (CpdB_Ndom [7]): 0.6 mM
Nc1nc2c(ncn2[C@@H]2O[C@@H]3COP(=O)(O)O[C@H]4[C@@H](O)[C@H](n5cnc6c(=O)[nH]c(N)nc65)O[C@@H]4COP(=O)(O)O[C@H]3[C@H]2O)c(=O)[nH]1 [c-di-GMP, 3′,5′-cyclic diguanosine monophosphate]	250 ± 30	0.0003 ± 0.0001	1.2 ± 0.4 M⁻¹ s⁻¹	6	0.07	13,000 M^−1 s^−1	–	–	–
Nc1ncnc2c1ncn2[C@@H]1O[C@@H]2COP(=O)(O)O[C@H]2[C@H]1O [3′,5′-cAMP]	6900 ± 2600	–	–	4600	–	–	–	–	–
Nc1ncnc2c1ncn2[C@@H]1O[C@H](COP(=O)(O)O[C@H]2[C@@H](O)[C@H](n3cnc4c(N)ncnc43)O[C@@H]2COP(=O)(O)O)[C@@H](O)[C@H]1O [pApA, 5′-phosphoadenylyl-3′→5′-adenosine]	230 ± 40	0.0004 ± 0.0001	1.8 ± 0.2 M⁻¹ s⁻¹	0.6	1.30	2,300,000 M^−1 s^−1	–	–	Stronger loss of catalytic efficiency than on c-di-AMP caused by the deletion of the C domain ([1]; CpdB_Ndom versus mature CpdB): 100 fold
Nc1ncnc2c1ncn2[C@@H]1O[C@H](COP(=O)(O)OP(=O)(O)OP(=O)(O)O)[C@@H](O)[C@H]1O [ATP]	–	–	–	–	–	–	720	113 ± 19	IC50 (CpdB_Ndom [7]): 8.7 mM; Ki (CpdB_Ndom [7]): 5.7 mM
